Data reported in PubChem BioAssay (NCI).
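Test compounds were applied to cells in 96-well plates for 48 hours at 5 doses. Abbreviation: GI50, concentration required for 50% inhibition of growth. TGI is the concentration that stops growth completely.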

Legend:
Assay in all cases: inhibition of tumour cell growth, NCI panel, 48 h
NCI-H226 lung = test system: NCI-H226 lung
NCI-H522 lung = test system: NCI-H522 lung
A498 renal = test system: A498 renal
K-562 leukemia = test system: K-562 leukemia
HCT-116 colon = test system: HCT-116 colon
UACC-257 melanoma = test system: UACC-257 melanoma
BT-549 breast = test system: BT-549 breast
KM12 colon = test system: KM12 colon
MDA-MB-435 = test system: MDA-MB-435
786-0 renal = test system: 786-0 renal

Compound	TGI (NCI-H226 lung)	TGI (NCI-H522 lung)	TGI (A498 renal)	TGI (K-562 leukemia)	TGI (HCT-116 colon)	TGI (UACC-257 melanoma)	TGI (BT-549 breast)	TGI (KM12 colon)	TGI (MDA-MB-435)	TGI (786-0 renal)	GI50 (NCI-H226 lung)	GI50 (NCI-H522 lung)	GI50 (A498 renal)	GI50 (K-562 leukemia)	GI50 (HCT-116 colon)	GI50 (UACC-257 melanoma)	GI50 (BT-549 breast)	GI50 (KM12 colon)	GI50 (MDA-MB-435)	GI50 (786-0 renal)
CC(C)(C)c1ccc(-c2nnc(SCc3ccc(Cl)cc3)n2-c2cccc(C(F)(F)F)c2)cc1	97.3 µM	> 100 µM	> 100 µM	> 100 µM	> 100 µM	> 72.6 µM	> 100 µM	> 100 µM	> 100 µM	> 100 µM										
COc1ccc(Cc2ccccc2C(=O)O)c2ccccc12	> 100 µM	55.4 µM	57.9 µM	> 100 µM	47.3 µM	48.3 µM	> 100 µM	42.9 µM	54.8 µM	> 100 µM										
CC1SC(c2cccs2)N(NC(=O)C(O)c2ccccc2)C1=O (configuration not stated)	> 100 µM	> 100 µM	> 100 µM	> 100 µM	> 100 µM	> 100 µM	> 100 µM	> 100 µM	> 100 µM	> 100 µM	> 100 µM	> 100 µM	> 100 µM	> 100 µM	> 100 µM	> 100 µM	> 100 µM	> 100 µM	> 100 µM	> 100 µM
COc1ccc2c(CNCCCCO)cc3cc4c(cc3c2c1)OCO4	1.62 µM	2.93 µM	2.98 µM	20.3 µM	9.5 µM	2.88 µM	11.9 µM	7.33 µM	3.54 µM	> 32.2 µM	0.638 µM	0.228 µM	1.16 µM	1.07 µM	0.609 µM	0.823 µM	3.83 µM	1.83 µM	0.982 µM	1.63 µM
CN(C)CCn1cc(-c2ccc3c(Nc4ccc(CC(=O)Nc5cccc(F)c5)cc4)ncnc3c2)cn1	> 10 µM	3.22 µM	> 10 µM	> 10 µM	2.72 µM	5.68 µM	> 10 µM	1.97 µM	> 10 µM	2.87 µM	> 10 µM	1.32 µM	> 10 µM	2.72 µM	1.26 µM	1.84 µM	4.78 µM	0.393 µM	2.86 µM	1.42 µM
C=C1C(=O)O[C@H]2[C@H]1CC/C(COC(=O)CCC(=O)OC/C1=C/CC[C@@]3(C)O[C@H]3[C@H]3OC(=O)C(=C)[C@@H]3CC1)=C\CC[C@@]1(C)O[C@@H]21	11.7 µM	3.07 µM	23.6 µM	4.34 µM		3.39 µM	2.83 µM	16.6 µM	4.65 µM	3.12 µM	2.46 µM	1.43 µM	10.5 µM	0.531 µM		1.52 µM	1.4 µM	3.88 µM	1.84 µM	1.46 µM
COc1cc2c(/C=C3\C(=O)Nc4ccc(Br)cc43)c(Cl)n(C)c2cc1C	6.18 µM	4.29 µM	1.62 µM	> 29.2 µM	7.17 µM	31 µM	4.77 µM	1.88 µM	0.802 µM	3.94 µM	1.88 µM	1.66 µM	0.419 µM	1.96 µM	1.61 µM	7.56 µM	1.49 µM	0.387 µM	0.249 µM	0.998 µM
COc1ccc(C(=O)Nc2cccc(C3CC(=O)c4c(cc(OC)c(OC)c4OC)O3)c2)cc1 (configuration not stated)	43.1 µM	5.15 µM	8.12 µM	> 100 µM	> 100 µM	56 µM	7.81 µM	14.7 µM	1.4 µM	> 100 µM	2.6 µM	0.411 µM	2 µM	0.367 µM	0.381 µM	11.6 µM	1.01 µM	1.08 µM	0.276 µM	0.795 µM
O=[N+]([O-])c1ccc2[nH]cc(-c3c4ccccc4cc4[nH]c5ccc([N+](=O)[O-])cc5c34)c2c1	5.8 µM	6.1 µM	4.25 µM	> 100 µM	5 µM	7.13 µM	5.94 µM	3.37 µM	4.89 µM	4.09 µM	2.2 µM	2.12 µM	1.53 µM	3.5 µM	2.16 µM	2.45 µM	2.29 µM	1.78 µM	1.8 µM	1.94 µM
Oc1ccc2ccccc2c1/C=N\Nc1ccccn1	> 41.9 µM		7.03 µM	> 100 µM	> 39.2 µM	> 100 µM	> 54.9 µM	> 100 µM	> 100 µM	4.58 µM	2.2 µM	0.413 µM	1.25 µM	0.426 µM	0.318 µM	1.72 µM	3.84 µM	1.09 µM	0.752 µM	0.618 µM
Cn1c2ccccc2c2c3c(c4c5ccccc5n(CCCCCC#N)c4c21)C(=O)N(O)C3=O	7.14 µM	1.42 µM	3.56 µM	> 100 µM	4.14 µM	5.22 µM	88.7 µM	5.95 µM	9.59 µM	3.81 µM	1.6 µM	0.268 µM	1.21 µM	0.71 µM	0.87 µM	1.65 µM	2.5 µM	1.5 µM	0.788 µM	1.59 µM
O=c1c2ccccc2nc(-c2ccc(Cl)cc2)n1O	> 100 µM	57 µM	> 100 µM	> 100 µM	> 100 µM	88.2 µM	> 100 µM	> 100 µM	> 100 µM	94.4 µM										
Fc1ccc(Nc2nc(Nc3ccc(-c4nc5ccccc5[nH]4)cc3)nc(N3CCCC3)n2)cc1	34.9 µM	4.91 µM	25.7 µM	5.35 µM	3.52 µM		20.7 µM	10 µM	11.3 µM	3.35 µM	14.2 µM	2.16 µM	12.8 µM	2.31 µM	1.78 µM		6.9 µM	2.98 µM	3.38 µM	1.8 µM
O=C1c2cccnc2-c2nc(-c3ccc([N+](=O)[O-])cc3)cc3c2c1nc1ccccc13	33.4 µM	6.95 µM	65.5 µM	> 100 µM	> 26.1 µM	7.32 µM	28.6 µM	19.4 µM	3.06 µM	40.1 µM	9.63 µM	2 µM	24.2 µM	20.7 µM	2.56 µM	2.21 µM	10.4 µM	3.35 µM	1.69 µM	10.4 µM
CC(O)CN(CCN(CC(C)O)CC(C)O)CC(C)O.O=[N+]([O-])O.[Cu+2] (configuration not stated)	> 100 µM	> 100 µM	63.3 µM	> 100 µM	> 100 µM	> 100 µM	> 100 µM	> 100 µM	> 100 µM	> 100 µM	> 100 µM	> 100 µM	30.9 µM	> 100 µM	> 100 µM	> 100 µM	> 100 µM	> 100 µM	> 100 µM	> 100 µM
COc1ccc(/C=C(/C(=O)N2CCNCC2)c2cc(OC)c(OC)c(OC)c2)cc1O	> 100 µM	9.84 µM	7.33 µM	> 100 µM	> 100 µM	> 100 µM	48.4 µM	> 100 µM	1.8 µM	> 100 µM	5.4 µM	2.42 µM	1.22 µM	1.6 µM	3.45 µM	33.7 µM	4.22 µM	3.18 µM	0.418 µM	33.1 µM
CC(C)[C@]12O[C@H]1[C@@H]1O[C@]13[C@]1(O[C@H]1C[C@H]1c4c(C(=O)c5ccccc5)oc(OC(=O)c5ccccc5)c4CC[C@@]13C)[C@@H]2O	0.554 µM	0.0913 µM	0.0614 µM		> 100 µM	0.0628 µM	0.0951 µM	3.78 µM	0.0366 µM	5.22 µM	0.025 µM	0.0169 µM	0.0179 µM	0.0219 µM	0.0142 µM	0.0168 µM	0.0188 µM	0.226 µM	0.0151 µM	0.0352 µM
O=Cc1ccc(C(F)(F)F)cc1.[C-]#[O+].[C-]#[O+].[C-]#[O+].[Cr]	98.4 µM	> 100 µM	> 100 µM	97.6 µM	38.7 µM	> 100 µM	> 100 µM	91.5 µM	45.7 µM	44.1 µM	21.6 µM	23.7 µM	21.4 µM	26.2 µM	16.7 µM	58.2 µM	40.1 µM	24.6 µM	14.3 µM	13.1 µM
CCOC(=O)C(=Cc1ccccc1Br)C(=O)OCC	8.99 µM	4.3 µM	5.07 µM	13.4 µM	> 100 µM	14.7 µM	7.07 µM	4.06 µM	5.16 µM	> 100 µM										
O=C1c2cc3c(cc2-c2c1c1ccc([N+](=O)[O-])cc1c(=O)n2CCCCl)OCO3	9.09 µM	> 100 µM	5.93 µM	> 100 µM	> 100 µM		24.5 µM	> 100 µM	> 100 µM	> 100 µM	0.409 µM	> 85.9 µM	0.367 µM		6.38 µM		0.308 µM	2.27 µM	1.22 µM	0.198 µM
O=Nc1c(-c2cccc([N+](=O)[O-])c2)nc2ncccn12	37 µM	25.1 µM	38.3 µM	4.15 µM	13.3 µM	26.4 µM	32.1 µM	26.8 µM	36.4 µM	54.7 µM	16.2 µM	10.6 µM	17.4 µM	1.28 µM	3.03 µM	12.3 µM	15.8 µM	12.4 µM	13.7 µM	17.6 µM
NC(=O)NC(=O)CI	28.2 µM	0.475 µM	31.7 µM	3.6 µM	3.12 µM	13.4 µM	11.3 µM	35.5 µM	15.9 µM	13.5 µM	6.79 µM	0.208 µM	15 µM	1.03 µM	1.39 µM	3.96 µM	4.28 µM	18.2 µM	4.02 µM	4.7 µM
Nc1nc(Cl)nc2c1ncn2C1O[C@H](CO)[C@@H](O)[C@@H]1F (some centres not stated)	37.5 µM	> 100 µM	14.3 µM	> 100 µM	> 100 µM	> 100 µM	0.702 µM	> 100 µM	> 100 µM	0.486 µM	0.329 µM		0.682 µM	3.79 µM	0.13 µM		0.091 µM	29.7 µM	0.485 µM	0.092 µM
NS(=O)(=O)c1ccc(-n2nc(-c3ccc(Cl)cc3)cc2C2=CC(=O)C=CC2=O)cc1	34.4 µM	87.2 µM	70.2 µM	74.1 µM		42.9 µM	70.8 µM	36.1 µM	67.1 µM	36 µM	13.8 µM	31 µM	22.8 µM	19.4 µM		19.9 µM	22.5 µM	16 µM	22.9 µM	19.8 µM
CSC(=S)N/N=C(\C)c1ccccn1	3.45 µM	0.368 µM	6.33 µM	23.3 µM	5.28 µM	1.55 µM	14.8 µM	14.3 µM	16.6 µM	12.5 µM	0.335 µM	0.0339 µM	0.458 µM	< 0.01 µM	< 0.01 µM	0.159 µM	0.44 µM	0.346 µM	0.407 µM	0.315 µM
Cc1ccc(Cl)cc1Nc1nc(C(F)(F)F)ccc1C(=O)Oc1ccc(Cl)cc1	36.1 µM	> 100 µM	33.2 µM	15 µM	20 µM	> 100 µM	36.3 µM	63.6 µM	51.9 µM	30.8 µM	12.1 µM	22.3 µM	11.9 µM	4.37 µM	4.45 µM	39.3 µM	15.6 µM	21.6 µM	16.8 µM	14.3 µM
CCOC1NC(=O)Oc2ccccc21 (configuration not stated)	> 100 µM	> 100 µM	> 100 µM	> 100 µM	> 100 µM	> 100 µM	> 100 µM	> 100 µM	> 100 µM	> 100 µM										
